Here are results for 21 molecules from patent US20060281789A1, “Protein kinase inhibitors” (KYOWA HAKKO KOGYO CO., LTD, priority 2003, published 2006).

Counter-ions that a name gives are not always drawn.

In this assay the target is T1, human Flt-3 (Homo sapiens, UniProt P36888).
T1 construct: fused to the N-terminus of the intracellular domain (583-953 amino acids) thereof; made in house; host or cells: insect cells (baculovirus)
T1 sequence (P36888 583-953): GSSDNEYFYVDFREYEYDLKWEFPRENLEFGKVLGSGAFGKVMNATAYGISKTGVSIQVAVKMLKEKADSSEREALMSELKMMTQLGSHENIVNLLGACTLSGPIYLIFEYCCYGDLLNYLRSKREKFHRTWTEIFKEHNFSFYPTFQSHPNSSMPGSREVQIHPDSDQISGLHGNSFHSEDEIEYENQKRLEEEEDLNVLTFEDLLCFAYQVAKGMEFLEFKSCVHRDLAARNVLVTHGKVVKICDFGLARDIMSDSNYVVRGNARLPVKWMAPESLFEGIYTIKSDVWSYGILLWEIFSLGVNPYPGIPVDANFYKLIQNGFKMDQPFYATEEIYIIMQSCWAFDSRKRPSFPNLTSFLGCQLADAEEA
The assay can be described thus: Inhibitory activity on Flt-3 (GST-fused kinase, time-resolved fluoroimmunoassay). The format is biochemical. To be noted: tested compound 10 μmol/L, ATP 10 μmol/L, sixty minutes. On the procedure: Flt-3 inhibitory activities were determined in the following manner.
Flt-3 was prepared by allowing baculovirus to infect insect cells, which baculovirus expresses a protein comprising human Flt-3 with […]. […] Separately was prepared a solution containing, at final concentrations, GST-fused Flt-3 (100 μg/L), Tris-Cl (pH 7.5) (20 mmol/L), β-glycerophosphate (5 mmol/L), dithiothreitol (DTT) (1 mmol/L), Na3VO4 (0.1 mmol/L), MgCl2 (10 mmol/L), MnCl2 (10 mmol/L), ATP (10 μmol/L), bovine serum albumin (BSA) (0.1%), DMSO (0.1%), and a tested compound (10 μmol/L). The solution (each 60 μL) was placed into the wells of the plate for the determination of kinase reaction, followed by enzymatic reaction at room temperature for sixty minutes. After reacting, the reaction was stopped by the addition of 50 μL of a 25 mmol/L aqueous solution of ethylenediaminetetraacetic acid. […] The relative activity (%) of a well in which the enzyme and tested compound were added was determined by calculation with the value in a well to which the tested compound was not added being 100% and the value in a well to which the enzyme and the tested compound were not added being 0%. The Flt-3 inhibitory activity (%) of the tested compound was determined by subtracting the relative activity (%) from 100.
In turn, `CN(C)CCOc1ccc(/C=C/c2n[nH]c3ccccc23)cc1` [Compound 2, (E)-3-(2-[4-(2-dimethylaminoethoxy)phenyl]vinyl}-1H-indazole hydrochloride] came in with an inhibition at 10 µM of 97.8%.

In turn, `COc1cc(/C=C/c2n[nH]c3ccccc23)ccc1OCCN1CCOCC1` [Compound 30, (E)-3-{2-[3-methoxy-4-(2-morpholinoethoxy)phenyl]vinyl}-1H-indazole hydrochloride] gave an inhibition at 10 µM of 98.1%.

As to `Nc1cc(/C=C/c2n[nH]c3ccccc23)ccc1OCCN1CCOCC1` [Compound 38, (E)-3-{2-[3-amino-4-(2-morpholinoethoxy)phenyl]vinyl}-1H-indazole], the inhibition at 10 µM amounted to 99.2%.

As to `CS(=O)(=O)Nc1cc(/C=C/c2n[nH]c3ccccc23)ccc1OCCN1CCOCC1` [Compound 60, (E)-N-{5-[2-(1H-Indazol-3-yl)vinyl]-2-(2-morpholinoethoxy)phenyl}methanesulfonamide], the inhibition at 10 µM was 90.2%.

`O=C(NCCN1CCOCC1)c1ccc(/C=C/c2n[nH]c3ccccc23)cc1` [Compound 61, (E)-N-(2-morpholinoethyl)-4-[2-(1H-indazol-3-yl)vinyl]benzamide]: the inhibition at 10 µM was determined as 91%.

In turn, `CCN(CC)C(=O)c1ccc(/C=C/c2n[nH]c3ccccc23)cc1` [Compound 62, (E)-N,N-Diethyl-4-[2-(1H-indazol-3-yl)vinyl]benzamide hydrochloride] had an inhibition at 10 µM of 93.7%.

`CC(C)(C)OC(=O)N1CCN(C(=O)c2ccc(/C=C/c3n[nH]c4ccccc34)cc2)CC1` [Compound 63, (E)-4-{4-[2-(1H-indazol-3-yl)vinyl]benzoyl)piperazine-1-carboxylic acid 1,1-dimethylethylester] had an inhibition at 10 µM of 97.4%.

In the case of `O=C(c1ccc(/C=C/c2n[nH]c3ccccc23)cc1)N1CCNCC1` [Compound 64, (E)-1-{4-[2-(1H-indazol-3-yl)vinyl]benzoyl}piperazine], the inhibition at 10 µM came out at 94.2%.

As to `O=CN1CCN(C(=O)c2ccc(/C=C/c3n[nH]c4ccccc34)cc2)CC1` [Compound 65, (E)-4-{4-[2-(1H-indazol-3-yl)vinyl]benzoyl}piperazine-1-carbaldehyde], at 10 µM the inhibition was 94.4%.

Molecule `CCOC(=O)N1CCN(C(=O)c2ccc(/C=C/c3n[nH]c4ccccc34)cc2)CC1` [Compound 66, (E)-1-{4-[2-(1H-indazol-3-yl)vinyl]benzoyl}-4-ethoxycarbonylpiperazine] registered an inhibition at 10 µM of 95.7%.

`O=C(c1ccncc1)N1CCN(C(=O)c2ccc(/C=C/c3n[nH]c4ccccc34)cc2)CC1` [Compound 67, (E)-1-{4-[2-(1H-indazol-3-yl)vinyl]benzoyl}-4-(isonicotinoyl)piperazine] gave an inhibition at 10 µM of 96.4%.

In turn, `CCN(CC)CCNC(=O)c1ccc(/C=C/c2n[nH]c3ccccc23)cc1` [Compound 68, (E)-N-[2-(diethylamino)ethyl]-4-[2-(1H-indazol-3-yl)vinyl]benzamide] returned an inhibition at 10 µM of 94.4%.

`COCC(=O)N1CCN(C(=O)c2ccc(/C=C/c3n[nH]c4ccccc34)cc2)CC1` [Compound 69, (E)-4-methoxyacetyl-1-{4-[2-(1H-indazol-3-yl)vinyl]benzoyl}piperazine] displayed an inhibition at 10 µM of 95.8%.

With `O=C1CN(C(=O)c2ccc(/C=C/c3n[nH]c4ccccc34)cc2)CCN1` [Compound 70, (E)-4-{4-[2-(1H-indazol-3-yl)vinyl]benzoyl}piperadin-2-one], the “Inhibitory activity on Flt-3 (%)” value was 93.7%.

`NC1CCN(C(=O)c2ccc(/C=C/c3n[nH]c4ccccc34)cc2)C1` (stereo not drawn) [Compound 71, (E)-1-{4-[2-(1H-indazol-3-yl)vinyl]benzoyl}-3-aminopyrrolidine dihydrochloride]: the inhibition at 10 µM is 95.2%.

`O=C(c1ccc(/C=C/c2n[nH]c3ccccc23)cc1)N1CCN(C(=O)[C@H]2CCNC2)CC1` [Compound 72, (S)-(E)-1-{4-[2-(1H-indazol-3-yl)vinyl]benzoyl}-4-(pyrrolidin-3-ylcarbonyl)piperazine dihydrochloride] yielded an inhibition at 10 µM of 95%.

For the molecule `CC(C)(N)C(=O)N1CCN(C(=O)c2ccc(/C=C/c3n[nH]c4ccccc34)cc2)CC1.Cl.Cl` [Compound 74, (E)-4-(2-amino-2-methylpropionyl)-1-{4-[2-(1H-indazol-3-yl)vinyl]benzoyl}piperazine dihydrochrolide], the “Inhibitory activity on Flt-3 (%)” value is given as 97.0%.

`CC(=O)N(C)CC(=O)N1CCN(C(=O)c2ccc(/C=C/c3n[nH]c4ccccc34)cc2)CC1` [Compound 75, (E)-4-(N-acetyl-N-methylaminoacetyl)-1-(4-[2-(1H-indazol-3-yl)vinyl]benzoyl}piperazine] gave an inhibition at 10 µM of 95.1%.

With `O=C(c1ccc(/C=C/c2n[nH]c3ccccc23)cc1)N1CCN(C(=O)[C@@H]2CCCN2)CC1` [Compound 76, (S)-(E)-4-[(pyrrolidin-2-yl)carbonyl]-1-{4-[2-(1H-indazol-3-yl)vinyl]benzoyl}piperazine], the inhibition at 10 µM was found to be 93.9%.

As to `CN1CCC(C(=O)N2CCN(C(=O)c3ccc(/C=C/c4n[nH]c5ccccc45)cc3)CC2)CC1` [Compound 77, (E)-4-[(1-methylpiperidin-4-yl)carbonyl]-1-(4-[2-(1H-indazol-3-yl)vinyl]benzoyl)piperazine], the inhibition at 10 µM turned out to be 96.3%.

Molecule `NC1CCN(C(=O)c2ccc(/C=C/c3n[nH]c4ccccc34)cc2)CC1` [Compound 78, (E)-1-{4-[2-(1H-indazol-3-yl)vinyl]benzoyl}-4-aminopiperidine] showed an inhibition at 10 µM of 95.7%.

The term inhibition denotes the change of the read-out against control, counted positive when it falls. High values mean a strong effect, low ones a weak effect.
